The numbers were not newly measured in US7186826B2, “Phosphorus-containing compounds and uses thereof” (ARIAD Gene Therapeutics, Inc., priority 2002, dated 2007), which cites them from elsewhere.

The structures appear in SMILES notation.

The conditions of the data set: see WO 03/022807 and 99/15530.

For the molecule `CO[C@H]1C[C@@H]2CC[C@@H](C)[C@@](O)(O2)C(=O)C(=O)N2CCCC[C@H]2C(=O)O[C@H]([C@H](C)C[C@@H]2CC[C@H](n3cnnn3)[C@H](OC)C2)CC(=O)[C@H](C)/C=C(\C)[C@@H](O)[C@@H](OC)C(=O)[C@H](C)C[C@H](C)/C=C/C=C/C=C/1C` [ABT-578], the biological half-life entry is given as “shortened”.
